We go through 25 molecules from US9586949B2, “Aza-heteroaryl compounds as PI3K-gamma inhibitors” (Incyte Corporation, priority 2015, dated 2017).

The target in experiment [1] is PI3Kγ (p110γ) Recombinant Human Protein (Homo sapiens (Human), UniProt P48736). The experiment in a line: PI3K-γ Scintillation Proximity Assay. In kind it is biochemical. The note with it: 20 μM PIP2, 2 μM ATP, 13 nM PI3Kγ, 120 min; read-out: PI3K-gamma SPA IC50. The procedure:
[γ-^33P]ATP (10 mCi/mL) and Wheat Germ Agglutinin (WGA) YSi SPA Scintillation Beads was purchased from Perkin-Elmer (Waltham, Mass.). […] PI3Kγ (p110γ) Recombinant Human Protein was purchased from Life technology (Grand Island, N.Y.). ATP, MgCl2, DTT, EDTA, MOPS and CHAPS were purchased from Sigma-Aldrich (St. Louis, Mo.).
The kinase reaction was conducted in polystyrene 384-well Greiner Bio-one white plate from Thermo Fisher Scientific in a final volume of 25 μL. Inhibitors were first diluted serially in DMSO and added to the plate wells before the addition of other reaction components. The final concentration of DMSO in the assay was 2%. The PI3Kγ assay was carried out at room temperature in 20 mM MOPS, pH 6.7, 10 mM MgCl2, 5 mM DTT and CHAPS 0.03%. Reactions were initiated by the addition of ATP, the final reaction mixture consisted of 20 μM PIP2, 2 μM ATP, 0.5 μCi [γ-^33P] […] The final concentration of SPA beads is 1.0 mg/mL. After the plate sealing, plates were shaken overnight at room temperature and centrifuged at 1500 rpm for 10 min, the radioactivity of the product was determined by scintillation counting on Topcount (Perkin-Elmer). IC50 determination was performed by fitting the curve of percent of the solvent control activity versus the log of the inhibitor concentration using the GraphPad Prism 6.0 software.
For orientation: Scintillation proximity formats need no separation of bound from free tracer.

In experiment [2] the target is PI3Kδ (p110δ/p85α) Recombinant Human Protein (Homo sapiens (Human), UniProt O00329). The experiment is described as follows: PI3Kδ Scintillation Proximity Assay. In kind it is biochemical. The settings on record: 20 μM PIP2, 2 μM ATP, 3.4 nM PI3Kδ, 120 min; read-out: PI3K-delta SPA IC50. An excerpt:
[γ-^33P]ATP (10 mCi/mL) and Wheat Germ Agglutinin (WGA) YSi SPA Scintillation Beads was purchased from Perkin-Elmer (Waltham, Mass.). Lipid kinase substrate, D-myo-Phosphatidylinositol 4,5-bisphosphate (PtdIns(4,5)P2)D (+)-sn-1,2-di-O-octanoylglyceryl, 3-O-phospho linked (PIP2), CAS 204858-53-7, was purchased from Echelon Biosciences (Salt Lake City, Utah). PI3Kδ (p110δ/p85α) Recombinant Human Protein was purchased from Eurofins (St Charles, Mo.). ATP, MgCl2, DTT, EDTA, MOPS and CHAPS were purchased from Sigma-Aldrich (St. Louis, Mo.).
The kinase reaction was conducted in polystyrene 384-well Greiner Bio-one white plate from Thermo Fisher Scientific in a final volume of 25 μL. Inhibitors were first diluted serially in DMSO and added to the plate wells before the addition of other reaction components. The final concentration of DMSO in the assay was 2%. The PI3Kδ assay was carried out at room temperature in 20 mM MOPS, pH 6.7, 10 mM MgCl2, 5 mM DTT and CHAPS 0.03%. Reactions were initiated by the addition of ATP, the final reaction mixture consisted of 20 μM PIP2, 2 μM ATP, 0.5 μCi [γ-^33P] ATP, 3.4 nM PI3Kδ. Reactions were incubated for 120 min and terminated by the addition of 40 μL SPA beads suspended in quench buffer: 163 mM potassium phosphate pH 7.8, 20% glycerol, 25 mM EDTA. The final concentration of SPA beads is 1.0 mg/mL. After the plate sealing, plates were shaken overnight at room temperature and centrifuged at 1500 rpm for 10 min, the radioactivity of the product was determined by scintillation counting on Topcount (Perkin-Elmer). IC50 determination was performed by fitting the curve of percent of the solvent control activity versus the log of the inhibitor concentration using the GraphPad Prism 6.0 software.

Structures can show the parent of a compound that is named as a salt. Bounds are passed on as bounds.

Chain of PI3Kγ (p110γ) Recombinant Human Protein (P48736 whole entry): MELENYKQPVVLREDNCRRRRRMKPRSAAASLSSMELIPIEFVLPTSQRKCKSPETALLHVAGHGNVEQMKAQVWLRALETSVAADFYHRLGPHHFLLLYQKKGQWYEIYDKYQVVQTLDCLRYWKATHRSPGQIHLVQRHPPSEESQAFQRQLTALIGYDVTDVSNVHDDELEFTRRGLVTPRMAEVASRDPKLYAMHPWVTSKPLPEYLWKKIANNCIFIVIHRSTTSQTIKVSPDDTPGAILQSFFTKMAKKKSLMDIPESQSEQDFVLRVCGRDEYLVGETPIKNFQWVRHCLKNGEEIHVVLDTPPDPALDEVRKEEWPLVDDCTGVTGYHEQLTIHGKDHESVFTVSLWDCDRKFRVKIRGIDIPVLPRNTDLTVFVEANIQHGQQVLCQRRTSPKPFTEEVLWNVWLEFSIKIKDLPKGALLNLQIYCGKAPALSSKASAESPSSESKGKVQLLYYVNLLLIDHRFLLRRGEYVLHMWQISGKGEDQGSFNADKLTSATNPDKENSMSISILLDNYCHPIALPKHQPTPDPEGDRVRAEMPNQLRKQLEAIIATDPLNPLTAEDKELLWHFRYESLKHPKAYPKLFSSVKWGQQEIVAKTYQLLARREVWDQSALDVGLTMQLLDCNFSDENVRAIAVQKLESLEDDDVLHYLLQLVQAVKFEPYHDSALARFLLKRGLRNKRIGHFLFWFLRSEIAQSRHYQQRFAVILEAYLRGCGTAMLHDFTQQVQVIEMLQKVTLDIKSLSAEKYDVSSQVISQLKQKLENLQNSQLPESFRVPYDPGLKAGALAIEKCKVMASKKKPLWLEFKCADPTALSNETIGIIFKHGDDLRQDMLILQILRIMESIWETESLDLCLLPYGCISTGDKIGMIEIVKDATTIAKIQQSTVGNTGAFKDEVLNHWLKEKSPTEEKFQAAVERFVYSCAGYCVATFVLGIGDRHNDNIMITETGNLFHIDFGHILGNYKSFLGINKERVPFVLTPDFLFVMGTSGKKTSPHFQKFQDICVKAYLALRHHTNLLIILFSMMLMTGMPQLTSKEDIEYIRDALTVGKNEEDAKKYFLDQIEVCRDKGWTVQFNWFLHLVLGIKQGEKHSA
Chain of PI3Kδ (p110δ/p85α) Recombinant Human Protein (O00329 whole entry): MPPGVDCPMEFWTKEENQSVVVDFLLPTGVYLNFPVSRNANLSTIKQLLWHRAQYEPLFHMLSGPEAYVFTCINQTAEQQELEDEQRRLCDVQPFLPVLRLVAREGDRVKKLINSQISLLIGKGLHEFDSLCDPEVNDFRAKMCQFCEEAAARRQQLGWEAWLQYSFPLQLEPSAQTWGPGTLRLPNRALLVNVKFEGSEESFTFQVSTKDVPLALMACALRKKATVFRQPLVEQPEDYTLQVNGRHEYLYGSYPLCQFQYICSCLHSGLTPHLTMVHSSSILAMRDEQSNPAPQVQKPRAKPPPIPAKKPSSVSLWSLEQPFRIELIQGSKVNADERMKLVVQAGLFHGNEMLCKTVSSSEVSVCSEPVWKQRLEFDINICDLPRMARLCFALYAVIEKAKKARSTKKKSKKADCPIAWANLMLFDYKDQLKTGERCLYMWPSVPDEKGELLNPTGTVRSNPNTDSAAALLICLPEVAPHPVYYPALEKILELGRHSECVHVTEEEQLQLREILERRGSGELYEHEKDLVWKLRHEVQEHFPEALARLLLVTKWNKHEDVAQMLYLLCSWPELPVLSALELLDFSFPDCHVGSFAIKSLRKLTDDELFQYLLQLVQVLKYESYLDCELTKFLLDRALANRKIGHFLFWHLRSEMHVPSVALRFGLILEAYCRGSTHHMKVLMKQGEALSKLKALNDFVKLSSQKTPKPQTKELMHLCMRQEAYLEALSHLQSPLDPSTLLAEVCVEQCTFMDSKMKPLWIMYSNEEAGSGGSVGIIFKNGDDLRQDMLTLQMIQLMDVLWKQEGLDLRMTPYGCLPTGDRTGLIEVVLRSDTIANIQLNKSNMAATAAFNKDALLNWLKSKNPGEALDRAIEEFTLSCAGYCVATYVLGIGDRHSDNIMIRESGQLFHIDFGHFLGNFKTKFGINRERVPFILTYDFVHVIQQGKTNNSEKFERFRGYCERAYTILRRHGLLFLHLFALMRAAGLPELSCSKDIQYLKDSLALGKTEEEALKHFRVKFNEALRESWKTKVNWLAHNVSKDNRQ
Chain of PI3Kδ (p110δ/p85α) Recombinant Human Protein (P27986 whole entry partner): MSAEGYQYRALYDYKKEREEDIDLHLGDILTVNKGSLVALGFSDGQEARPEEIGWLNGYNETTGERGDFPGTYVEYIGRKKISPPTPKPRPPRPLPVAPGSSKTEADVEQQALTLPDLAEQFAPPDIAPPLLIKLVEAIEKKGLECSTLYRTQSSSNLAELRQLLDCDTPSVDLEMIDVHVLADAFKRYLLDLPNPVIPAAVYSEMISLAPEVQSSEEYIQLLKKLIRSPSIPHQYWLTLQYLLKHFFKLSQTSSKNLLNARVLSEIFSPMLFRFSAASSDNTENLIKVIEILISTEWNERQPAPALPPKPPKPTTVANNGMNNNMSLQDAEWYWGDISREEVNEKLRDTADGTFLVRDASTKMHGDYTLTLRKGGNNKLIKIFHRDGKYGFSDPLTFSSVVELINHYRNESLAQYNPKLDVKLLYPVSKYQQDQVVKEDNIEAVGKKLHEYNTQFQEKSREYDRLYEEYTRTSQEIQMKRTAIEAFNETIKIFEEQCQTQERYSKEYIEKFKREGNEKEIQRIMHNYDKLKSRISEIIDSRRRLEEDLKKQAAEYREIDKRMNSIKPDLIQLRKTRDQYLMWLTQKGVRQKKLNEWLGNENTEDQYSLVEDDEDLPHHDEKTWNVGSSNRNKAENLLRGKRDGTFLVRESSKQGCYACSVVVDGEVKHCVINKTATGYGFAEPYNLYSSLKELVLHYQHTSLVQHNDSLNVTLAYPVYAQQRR

As to `COc1cncc(-c2ccc3nc(-c4ncc[nH]4)oc3c2)c1` [Example 1, 2-(1H-Imidazol-2-yl)-6-(5-methoxypyridin-3-yl)benzo[d]oxazole trifluoroacetate], the IC50 was less than 1 µM in experiment [1] and less than 5 µM in experiment [2]. Taken in the same sequence, the figures for `COc1cncc(-c2ccc3nc(-c4cnc[nH]4)oc3c2)c1` [Example 2, 2-(1H-Imidazol-5-yl)-6-(5-methoxypyridin-3-yl)benzo[d]oxazole trifluoroacetate] were less than 5 µM and less than 5 µM. Take `COc1cncc(-c2ccc3nc(-c4ccc[nH]4)oc3c2)c1` [Example 3, 6-(5-Methoxypyridin-3-yl)-2-(1H-pyrrol-2-yl)benzo[d]oxazole trifluoroacetate]: the IC50 in experiment [1] and in experiment [2] was less than 5 µM throughout. For `COc1cncc(-c2ccc3nc(-c4nc5ccccc5[nH]4)oc3c2)c1` [Example 4, 2-(1H-Benzo[d]imidazol-2-yl)-6-(5-methoxypyridin-3-yl)benzo[d]oxazole trifluoroacetate], the IC50 in experiment [1] was less than 0.25 µM; in experiment [2], less than 5 µM. Taken in the same sequence, the figures for `COc1cncc(-c2ccc3nc(-c4cc5ccccc5[nH]4)oc3c2)c1` [Example 5, 2-(1H-Indol-2-yl)-6-(5-methoxypyridin-3-yl)benzo[d]oxazole trifluoroacetate] were less than 0.25 µM and less than 1 µM. In the case of `COc1cncc(-c2ccc3nc(-c4nc5ccccc5[nH]4)sc3c2)c1` [Example 6, 2-(1H-Benzo[d]imidazol-2-yl)-6-(5-methoxypyridin-3-yl)benzo[d]thiazole trifluoroacetate], the IC50 in experiment [1] was greater than 5 µM; in experiment [2], no less than 5 µM. Taken in the same sequence, the figures for `COc1cncc(-c2ccc3nc(-c4nc5ccccc5[nH]4)ccc3c2)c1` [Example 7, 2-(1H-Benzo[d]imidazol-2-yl)-6-(5-methoxypyridin-3-yl)quinoline] were less than 1 µM and no less than 5 µM. For `COc1cncc(-c2ccc3nc(-c4nc5ccc(Br)cc5[nH]4)oc3c2)c1` [Example 8, 2-(6-Bromo-1H-benzo[d]imidazol-2-yl)-6-(5-methoxypyridin-3-yl)benzo[d]oxazole], in experiment [1], the IC50 is less than 1 µM.

Take `COc1cncc(-c2ccc3nc(-c4nc5cc(F)ccc5[nH]4)oc3c2)c1` [Example 10, 2-(5-Fluoro-1H-benzo[d]imidazol-2-yl)-6-(5-methoxypyridin-3-yl)benzo[d]oxazole]: the results for the IC50 in experiment [1] and in experiment [2] were less than 1 µM and no less than 5 µM, respectively.

As for `COc1cncc(-c2ccc3nc(-c4nc5cc(C)ccc5[nH]4)oc3c2)c1` [Example 11, 6-(5-Methoxypyridin-3-yl)-2-(5-methyl-1H-benzo[d]imidazol-2-yl)benzo[d]oxazole], the IC50 is less than 0.25 µM in experiment [1] and less than 5 µM in experiment [2]. As to `COc1cncc(-c2ccc3nc(-c4nc5c(C)cccc5[nH]4)oc3c2)c1` [Example 12, 6-(5-Methoxypyridin-3-yl)-2-(4-methyl-1H-benzo[d]imidazol-2-yl)benzo[d]oxazole], the IC50 was less than 0.25 µM in experiment [1] and no less than 5 µM in experiment [2]. As for `Brc1ccc2nc(-c3nc4ccccc4[nH]3)oc2c1` [Example 13, 2-(1H-Benzo[d]imidazol-2-yl)-6-bromobenzo[d]oxazole], the IC50 in experiment [1] is less than 5 µM; in experiment [2], no less than 5 µM.

`Oc1cncc(-c2ccc3nc(-c4nc5ccccc5[nH]4)oc3c2)c1` [Example 14, 5-(2-(1H-Benzo[d]imidazol-2-yl)benzo[d]oxazol-6-yl)pyridin-3-ol]: the IC50 in experiment [1] is less than 0.25 µM; in experiment [2] it was less than 5 µM. Taken in the same sequence, the figures for `CC(C)Oc1cncc(-c2ccc3nc(-c4nc5ccccc5[nH]4)oc3c2)c1` [Example 15, 2-(1H-Benzo[d]imidazol-2-yl)-6-(5-isopropoxypyridin-3-yl)benzo[d]oxazole] were less than 1 µM and less than 5 µM. For the molecule `FC(F)Oc1cncc(-c2ccc3nc(-c4nc5ccccc5[nH]4)oc3c2)c1` [Example 16, 2-(1H-Benzo[d]imidazol-2-yl)-6-(5-(difluoromethoxy)pyridin-3-yl)benzo[d]oxazole], the IC50 is less than 0.25 µM in experiment [1] and less than 1 µM in experiment [2]. Regarding `O=S(=O)(Nc1cncc(-c2ccc3nc(-c4nc5ccccc5[nH]4)oc3c2)c1)c1ccc(F)cc1` [Example 17, N-(5-(2-(1H-Benzo[d]imidazol-2-yl)benzo[d]oxazol-6-yl)pyridin-3-yl)-4-fluorobenzenesulfonamide], the IC50 in experiment [1] and in experiment [2] was less than 0.25 µM throughout. Consider `O=S(=O)(Nc1cncc(-c2ccc3nc(-c4nc5ccccc5[nH]4)oc3c2)c1)c1cccc(F)c1` [Example 19, N-(5-(2-(1H-Benzo[d]imidazol-2-yl)benzo[d]oxazol-6-yl)pyridin-3-yl)-3-fluorobenzenesulfonamide], for which the IC50 in experiment [1] and in experiment [2] was less than 0.25 µM throughout. Regarding `O=S(=O)(Nc1cncc(-c2ccc3nc(-c4nc5ccccc5[nH]4)oc3c2)c1)N1CCCCC1` [Example 20, N-(5-(2-(1H-Benzo[d]imidazol-2-yl)benzo[d]oxazol-6-yl)pyridin-3-yl)piperidine-1-sulfonamide], the results for the IC50 in experiment [1] and in experiment [2] were less than 0.25 µM and less than 1 µM, respectively. Regarding `CN(C)S(=O)(=O)Nc1cncc(-c2ccc3nc(-c4nc5ccccc5[nH]4)oc3c2)c1` [Example 21, N′-{5-[2-(1H-Benzimidazol-2-yl)-1,3-benzoxazol-6-yl]-pyridin-3-yl}-N,N-dimethylsulfamide], the IC50 in experiment [1] is less than 0.25 µM; in experiment [2], less than 1 µM.

`Cc1ncc(-c2ccc3nc(-c4nc5ccccc5[nH]4)oc3c2)cc1NS(=O)(=O)N(C)C` [Example 22, N′-{5-[2-(1H-Benzimidazol-2-yl)-1,3-benzoxazol-6-yl]-2-methylpyridin-3-yl}-N,N-dimethylsulfamide]: the IC50 in experiment [1] and in experiment [2] was less than 0.25 µM throughout. Regarding `CN(C)S(=O)(=O)Nc1cc(-c2ccc3nc(-c4nc5ccccc5[nH]4)oc3c2)cnc1F` [Example 23, N′-{5-[2-(1H-Benzimidazol-2-yl)-1,3-benzoxazol-6-yl]-2-fluoropyridin-3-yl}-N,N-dimethylsulfamide], the IC50 in experiment [1] and in experiment [2] was less than 0.25 µM throughout. As to `CC(C)S(=O)(=O)Nc1cncc(-c2ccc3nc(-c4nc5ccccc5[nH]4)oc3c2)c1` [Example 24, N-(5-(2-(1H-Benzo[d]imidazol-2-yl)benzo[d]oxazol-6-yl)pyridin-3-yl)propane-2-sulfonamide], the IC50 is less than 0.25 µM in experiment [1] and less than 5 µM in experiment [2]. The corresponding values for `CCS(=O)(=O)Nc1cc(-c2ccc3nc(-c4nc5ccccc5[nH]4)oc3c2)cnc1C` [Example 25, N-(5-(2-(1H-Benzo[d]imidazol-2-yl)benzo[d]oxazol-6-yl)-2-methylpyridin-3-yl)ethanesulfonamide] are less than 0.25 µM and less than 0.25 µM. Taken in the same sequence, the figures for `CCS(=O)(=O)Nc1cc(-c2ccc3nc(-c4nc5ccccc5[nH]4)oc3c2)cnc1Cl` [Example 26, N-(5-(2-(1H-Benzo[d]imidazol-2-yl)benzo[d]oxazol-6-yl)-2-chloropyridin-3-yl)ethanesulfonamide] were less than 0.25 µM and no less than 5 µM.

As to `CCS(=O)(=O)Nc1cc(-c2ccc3nc(-c4nc5ccccc5[nH]4)oc3c2)cnc1F` [Example 27, N-(5-(2-(1H-Benzo[d]imidazol-2-yl)benzo[d]oxazol-6-yl)-2-fluoropyridin-3-yl)ethanesulfonamide], the IC50 in experiment [1] is less than 0.25 µM; in experiment [2], less than 1 µM.
